This assay addresses T1, human TRPM8 (Homo sapiens, UniProt Q7Z2W7).
T1 construct: expressed in transfected cells; host or cells: Chinese hamster ovary (CHO) cells, T-REx tetracycline-inducible system, co-transfected with aequorin
Nature of the assay: Luminescence readout assay for measuring intracellular calcium, icilin activation. It is filed as cell-based. The conditions noted are these: 1 μM icilin activation. The protocol: Luminescence Readout Assay for Measuring Intracellular Calcium.
A stable Chinese hamster ovary cell line expressing human TRPM8 was generated using tetracycline inducible T-REx™ expression system from Invitrogen, Inc. (Carlsbad, Calif.). […] Twenty four hours before the assay, cells were seeded in 96-well plates and TRPM8 expression was induced with 0.5 μg/mL tetracycline. […] Potential antagonists were added 2.5 min prior to the addition of agonist, 1 μM icilin, 100 μM L-menthol, or 1 min prior to the addition of cold buffer (<10° C.). The luminescence was measured by a CCD camera based FLASH-luminometer built by Amgen, Inc. A cooling device attached to FLASH luminometer was used for cold activation.

The mark [1] stands for this setting: CHO cells expressing human TRPM8, aequorin luminescence, read-out: hTRPM8 IC50.

IC50 data for 24 molecules are collected here from patent US8710043B2, “TRPM8 antagonists and their use in treatments” (Amgen Inc., priority 2011, dated 2014).

As a reminder, the pIC50 is the IC50 on a negative log10 scale, so that one unit is a factor of ten.

SMILES strings stand for the structures. pIC50: −log10 of the molar value. Like-named read-outs stand apart in the source and are kept apart here.

T1 sequence (Q7Z2W7 whole entry): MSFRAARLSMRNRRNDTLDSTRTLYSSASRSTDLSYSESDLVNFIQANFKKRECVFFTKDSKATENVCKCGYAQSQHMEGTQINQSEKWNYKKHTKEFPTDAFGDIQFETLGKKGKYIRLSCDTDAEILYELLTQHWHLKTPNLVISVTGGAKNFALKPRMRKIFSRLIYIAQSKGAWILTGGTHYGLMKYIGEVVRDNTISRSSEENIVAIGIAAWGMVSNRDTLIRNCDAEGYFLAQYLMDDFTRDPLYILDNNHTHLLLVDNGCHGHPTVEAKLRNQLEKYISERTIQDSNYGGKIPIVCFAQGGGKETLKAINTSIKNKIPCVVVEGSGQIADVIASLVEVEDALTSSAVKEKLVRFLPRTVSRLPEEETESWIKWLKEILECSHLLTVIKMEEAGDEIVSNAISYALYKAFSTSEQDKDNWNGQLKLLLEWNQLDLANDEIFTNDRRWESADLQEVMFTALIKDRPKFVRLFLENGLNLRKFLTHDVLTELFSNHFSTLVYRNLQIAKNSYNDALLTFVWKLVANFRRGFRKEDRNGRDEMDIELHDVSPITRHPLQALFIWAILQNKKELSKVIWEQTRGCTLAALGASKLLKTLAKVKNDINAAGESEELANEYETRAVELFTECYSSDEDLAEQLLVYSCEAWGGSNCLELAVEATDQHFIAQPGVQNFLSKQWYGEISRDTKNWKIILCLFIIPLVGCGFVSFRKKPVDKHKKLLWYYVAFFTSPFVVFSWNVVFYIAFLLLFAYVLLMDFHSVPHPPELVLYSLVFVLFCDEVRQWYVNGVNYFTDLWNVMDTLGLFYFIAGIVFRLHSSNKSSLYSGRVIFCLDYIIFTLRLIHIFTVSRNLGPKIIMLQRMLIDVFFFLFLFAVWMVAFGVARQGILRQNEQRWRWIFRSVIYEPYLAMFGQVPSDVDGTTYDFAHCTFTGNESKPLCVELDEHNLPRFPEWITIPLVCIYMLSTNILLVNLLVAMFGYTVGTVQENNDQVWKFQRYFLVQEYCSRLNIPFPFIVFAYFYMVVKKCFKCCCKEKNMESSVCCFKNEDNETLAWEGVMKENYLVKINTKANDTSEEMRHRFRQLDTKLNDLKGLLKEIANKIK

Take `O=C(N[C@@H](c1ccc(C(F)(F)F)cc1)c1ncccc1F)c1ccc[nH]c1=O` [Example 72, (S)-N-((3-fluoropyridin-2-yl)(4-(trifluoromethyl)phenyl)methyl)-2-oxo-1,2-dihydropyridine-3-carboxamide]: the pIC50 under setting [1] is 6.78. In the case of `O=C(N[C@@H](c1ccc(C(F)(F)F)cc1)c1ncccc1F)c1ccc2nccc(Cl)c2c1` [Example 113, (S)-4-chloro-N-((3-fluoropyridin-2-yl)(4-(trifluoromethyl)phenyl)methyl)quinoline-6-carboxamide 2,2,2-trifluoroacetate], the pIC50 under setting [1] was 7.51. Regarding `O=C1COc2cc(C(=O)N[C@@H](c3ccc(OC(F)(F)F)cc3)c3ncccc3F)ccc2N1` [Example 81], under setting [1], the pIC50 is 7.61. In the case of `O=C(N[C@@H](c1ccc(OC(F)(F)F)c(F)c1)c1ncccc1F)c1ccc(=O)[nH]n1` [Example 349, (S)-N-((3-fluoro-4-(trifluoromethoxy)phenyl)(3-fluoropyridin-2-yl)methyl)-6-oxo-1,6-dihydropyridazine-3-carboxamide], the negative-log IC50 (pIC50) under setting [1] was 7.81. Take `CCn1cc(C(=O)N[C@@H](c2ccc(OC(F)(F)F)cc2)c2ncccc2F)ccc1=O` [Example 255, (S)-1-ethyl-N-((3-fluoropyridin-2-yl)(4-(trifluoromethoxy)phenyl)methyl)-6-oxo-1,6-dihydropyridine-3-carboxamide]: the negative logarithm of the IC50 (pIC50) under setting [1] was 7.75. Take `COc1cccc(C(=O)N[C@@H](c2ccc(C(F)(F)F)cc2)c2ncccc2C(F)(F)F)n1` [Example 33, (S)-6-methoxy-N-((4-(trifluoromethyl)phenyl)(3-(trifluoromethyl)pyridin-2-yl)methyl)picolinamide]: the pIC50 under setting [1] was 6.90. Still for that read-out and setting: the figure for `O=C(N[C@@H](c1ccc(C(F)(F)F)cc1)c1ncccc1Br)c1ccc2cccnc2c1` [Example 195, (S)—N-((3-bromopyridin-2-yl)(4-(trifluoromethyl)-phenyl)methyl)quinoline-7-carboxamide] is 7.30; for `O=C(N[C@@H](c1ccc(C(F)(F)F)cc1)c1ncccc1C(F)(F)F)c1cn[nH]c1` [Example 143, (S)-N-((4-(trifluoromethyl)phenyl)(3-(trifluoromethyl)pyridin-2-yl)methyl)-1H-pyrazole-4-carboxamide] it is 7.06; for `O=C(Cc1ccccc1OC(F)(F)F)N[C@@H](c1ccc(C(F)(F)F)cc1)c1ncccc1C(F)(F)F` [Example 164] it is 6.53. For the molecule `CCn1cc(C(=O)N[C@@H](c2ccc(Cl)c(Cl)c2)c2ncccc2F)ccc1=O` [Example 365, (S)-N-((3,4-dichlorophenyl)(3-fluoropyridin-2-yl)methyl)-1-ethyl-6-oxo-1,6-dihydropyridine-3-carboxamide], under setting [1], the pIC50 is 7.40. `COc1ccc([C@H](NC(=O)c2ccc(=O)[nH]c2)c2ncccc2F)cc1F` [Example 336, (S)-N-((3-fluoro-4-methoxyphenyl)(3-fluoropyridin-2-yl)methyl)-6-oxo-1,6-dihydropyridine-3-carboxamide]: the negative logarithm of the IC50 (pIC50) under setting [1] was 6.87. As to `O=C(N[C@@H](c1ccc(C(F)(F)F)cc1)c1ncccc1F)c1ccc2[nH]cnc2c1` [Example 392, (S)-N-((3-fluoropyridin-2-yl)(4-(trifluoromethyl)phenyl)methyl)-1H-benzo[d]imidazole-5-carboxamide], the pIC50 under setting [1] was 8.12. For `Cc1cc(C)n2nc(C(=O)N[C@@H](c3ccc(C(F)(F)F)cc3)c3ncccc3C(F)(F)F)cc2n1` [Example 149, (S)-5,7-dimethyl-N-((4-(trifluoromethyl)phenyl)(3-(trifluoromethyl)pyridin-2-yl)methyl)pyrazolo[1,5-a]pyrimidine-2-carboxamide], the pIC50 under setting [1] is 6.40. For `O=C(N[C@@H](c1ccc(C(F)(F)F)cc1)c1ncccc1F)c1ccc2ccc(=O)[nH]c2c1` [Example 125, (S)-N-((3-fluoropyridin-2-yl)(4-(trifluoromethyl)phenyl)methyl)-2-oxo-1,2-dihydroquinoline-7-carboxamide], the negative logarithm of the IC50 (pIC50) under setting [1] is 6.75. For `O=C(N[C@@H](c1ccc(C(F)(F)F)cc1)c1ncccc1C(F)(F)F)c1ccc(OC(F)(F)F)cc1` [Example 231, (S)-4-(trifluoromethoxy)-N-((4-(trifluoromethyl)phenyl)(3-(trifluoromethyl)pyridin-2-yl)methyl)benzamide], under setting [1], the pIC50 is 6.34. As for `Cn1nc(C(=O)N[C@@H](c2ccc(C(F)(F)F)cc2)c2ncccc2C(F)(F)F)c2ccccc21` [Example 215, (S)-1-methyl-N-((4-(trifluoromethyl)phenyl)(3-(trifluoromethyl)pyridin-2-yl)methyl)-1H-indazole-3-carboxamide], the pIC50 (hTRPM8 IC50, CHO cells expressing human TRPM8, aequorin luminescence) was 7.07. `O=C(N[C@@H](c1ccc(C(F)(F)F)cc1)c1nc(F)ccc1F)c1ccc(=O)[nH]c1` [Example 291, (S)-N-((3,6-difluoropyridin-2-yl)(4-(trifluoromethyl)phenyl)methyl)-6-oxo-1,6-dihydropyridine-3-carboxamide]: the negative-log IC50 (pIC50) under setting [1] is 6.48. Take `O=C(N[C@@H](c1ccc(OC(F)(F)F)c(F)c1)c1ccc(F)cn1)c1ccc(=O)[nH]c1` [Example 292, (S)-N-((3-fluoro-4-(trifluoromethoxy)phenyl)(5-fluoropyridin-2-yl)methyl)-6-oxo-1,6-dihydropyridine-3-carboxamide]: the pIC50 under setting [1] is 7.28. For `CN(C)c1ccc(C(=O)N[C@@H](c2ccc(C(F)(F)F)cc2)c2ncccc2C(F)(F)F)cn1` [Example 262, (S)-6-(Dimethylamino)-N-((4-(trifluoromethyl)phenyl)(3-(trifluoromethyl)pyridin-2-yl)methyl)nicotinamide], under setting [1], the pIC50 was 6.94. On to `O=C(N[C@@H](c1ccc(C(F)(F)F)cc1)c1ncccc1F)c1ccc2nccnc2c1` [Example 170, (S)-N-((3-fluoropyridin-2-yl)(4-(trifluoromethyl)phenyl)methyl)quinoxaline-6-carboxamide], for which the negative logarithm of the IC50 (pIC50) under setting [1] was 7.63. As for `N#Cc1cccc(C(=O)N[C@@H](c2ccc(C(F)(F)F)cc2)c2ncccc2C(F)(F)F)c1` [Example 168, (S)-3-cyano-N-((4-(trifluoromethyl)phenyl)(3-(trifluoromethyl)pyridin-2-yl)methyl)be], the pIC50 under setting [1] is 7.42. Still for that read-out and setting: the figure for `Cc1cccnc1[C@@H](NC(=O)c1ccc(=O)[nH]c1)c1ccc(C(F)(F)F)cc1` [Example 82, (S)-N-((3-methylpyridin-2-yl)(4-(trifluoromethyl)phenyl)methyl)-6-oxo-1,6-dihydropyridine-3-carboxamide 2,2,2-trifluoroacetate] is 7.75; for `O=C(N[C@@H](c1ccc(OC(F)(F)F)c(F)c1)c1ncccc1F)c1cc2oc(=O)[nH]c2cn1` [Example 438, (S)—N-((3-Fluoro-4-(trifluoromethoxy)phenyl)(3-fluoropyridin-2-yl)methyl)-2-oxo-2,3-dihydrooxazolo[4,5-c]pyridine-6-carboxamide] it is 7.94.

In the case of `O=C(N[C@@H](c1ccc(C(F)(F)F)cc1)c1ncccc1C(F)(F)F)C1CCOC1` (stereo partly drawn) [Example 225, N-((S)-(4-(trifluoromethyl)phenyl)(3-(trifluoromethyl)pyridin-2-yl)methyl)THF-3-carboxamide], the pIC50 under setting [1] is 6.31.
